Measured values from patent US20190365762A1, “MEDICINAL COMPOSITION INHIBITING NEOVASCULARIZATION PROLIFERATION FACTOR” (KYOTO UNIVERSITY, priority 2014, published 2019).
Entries after “also recorded” stand apart in the source; their conditions may differ.

Tests used:
[1] = test system: model mice with choroidal neovascularization (CNV); assay: CNV formation in laser-induced CNV model mice, intravitreal injection (Experiments 2 and 3); format: in vivo; details: for CNV formation (area of CNV): 20 pmol intraocularly injected immediately after laser irradiation, 7 days, C57B/6J mice, FIG. 2
Experimental: [Experiment 2: Evaluation of Effect of Inhibiting CNV Formation by Compounds 1 to 3]
The synthesized compounds 1 to 3 and the above reference compound were administered to model mice with choroidal neovascularization (CNV) by intravitreal injection, and the CNV inhibition was evaluated. The details of the experiment are as follows. FIG. 2 illustrates the results.
100 mg/kg of ketamine and 10 mg/kg of xylazine were intraperitoneally injected into 6- to 8-week-old C57B/6J mice (Japan SLC, Inc.), and the mice were placed under anesthesia. Then, eyedrops (SANDOL P) containing tropicamide (5 mg/ml) and phenylephrine (5 mg/ml) were used to dilate the pupil. Any four points of the fundus were irradiated with a 532 nm argon laser (100 mW, 0.1 s, 75 μm) to form new blood vessels. The compound (20 pmol) was intraocularly injected immediately after the laser irradiation, and an ofloxacin (Tarivid) ophthalmic ointment was applied to the corneal surface to prevent infection and drying.
100 mg/kg of ketamine and 10 mg/kg of xylazine were intraperitoneally injected into the mice after 7 days had passed from the laser irradiation, and the mice were placed under anesthesia. Then, the mice underwent thoracotomy and were perfused with FITC-dextran (50 mg/ml; Life Technologies Japan Ltd.) through the left ventricle. After the perfusion, the eyes were enucleated and fixed in 4% paraformaldehyde. After the fixation, the corneas, crystalline lenses, and retinas were removed, and the flat mount of the choroid was obtained. CNV was imaged with a fluorescence microscope (BZ-9000; Keyence Corporation) so that the area of the CNV was measured.
An experiment was performed in the same manner as Experiment 2 by administering the compound 2 at different concentrations (0.2 µM, 2 µM, 20 µM), and the CNV inhibition was evaluated. FIG. 3 illustrates the results.

[2] = test system: vascular endothelial growth factor (VEGF); assay: VEGF protein in culture medium of ARPE-19 cells by ELISA (Experiment 1); format: cell-based, human; details: compound 10 μM, TGF-β 1 nM, 72 hours, FIG. 1
Experimental: [Experiment 1: Evaluation of Effect of Inhibiting VEGF Expression by Compounds 1 to 3]
The synthesized compounds 1 to 3 and the following reference compound were administered to human retinal pigment epithelial cells (ARPE-19 cell line). After 3 days of cultivation, each culture medium was subjected to ELISA to determine a vascular endothelial growth factor (VEGF). The details of the experiment are as follows. FIG. 1 illustrates the results.
A retinal pigment epithelial cell line, i.e., ARPE-19 was used. The ARPE-19 was cultured in Ham's F-12/DMEM medium containing 10% fetal bovine serum and 1% penicillin-streptomycin solution. The cells were seeded on a 24 well plate at 1.0×10^4 cell/well. On the next day, the culture medium was replaced with 1% fetal bovine serum. Further, the culture medium was removed 24 hours later and replaced with a culture medium (containing 1% fetal bovine serum) to which the compound (10 μM) and TGF-β (1 nM) were added. The culture medium was replaced every 24 hours in the same manner. Then, the culture medium was collected after 72 hours had passed from the administration of the compound. An ELISA kit (manufactured by R&D Systems, Inc.) was used to measure the amount of VEGF protein in the culture medium. The absorbance was measured by an ARVO X5 multiplate reader.

[3] = test system: model mice with choroidal neovascularization (CNV); assay: CNV formation in CNV model mice, ophthalmic ointment (Experiment 4); format: in vivo; details: ophthalmic ointment with 10 g compound 2 per 100 g, 7 μL three times a day, versus base material only, FIG. 4
Experimental: [Experiment 4: Preparation of Ophthalmic Ointment and Evaluation of Effect of Inhibiting CNV Formation by Using the Ophthalmic Ointment]
An ophthalmic ointment with the following composition was prepared.
60 g of liquid paraffin; and
30 g of white petrolatum.
An experiment was performed in the same manner as Experiment 2 except that the ophthalmic ointment was applied in a dose of 7 μL three times a day, instead of the intravitreal injection, and the CNV inhibition was evaluated. Moreover, an ophthalmic ointment containing only a base material was used as a control, and the same experiment was performed. FIG. 4 illustrates the results. A of FIG. 4 is a graph that indicates the area of CNV.

SRPK (kinase) = details: see WO 2005/063293; cited from earlier work
[4] = test system: retinal neovascularization; details: Nowak D G, Bates D O et al., J. Bio. Chem. 2010; cited from earlier work
[5] = see WO 2005/063293; cited from earlier work

| melting point | SMILES | CNV formation (area of CNV) [1] | amount of VEGF protein in the culture medium [2] | CNV formation (area of CNV) [3] | concentration dependence of reduction of CNV formation ([1]; intravitreal injection, FIG. 3) | SRPK (kinase) inhibition (SRPK (kinase)) | retinal neovascularization [4] | antiviral activity [5] |
| --- | --- | --- | --- | --- | --- | --- | --- | --- |
| 260 °C (dec.) | COc1cc(/C=C2/C(=O)NN(c3ccc(Cl)c(Cl)c3)C2=O)ccc1O [compound 1, 1-(3,4-dichlorophenyl)-4-(4-hydroxy-3-methoxybenzylidene)pyrazolidine-3,5-dione] | significant | – | – | – | – | – | – |
| 224 to 225 °C | COc1cc(/C=C2\C(=N)N3N=C(C(F)(F)F)SC3=NC2=O)ccc1O [compound 2, 6-(4-hydroxy-3-methoxybenzylidene)-5-imino-2-(trifluoromethyl)-5,6-dihydro-7H-[1,3,4]thiadiazolo[3,2-a]pyrimidin-7-one] | significant; also recorded: more prominent | particularly significant | reduced the CNV formation | reduced the CNV formation in a concentration-dependent manner | – | – | – |
| – | O=C(Nc1cc(C(F)(F)F)ccc1N1CCCCC1)c1ccncc1 [reference compound] | – | – | – | – | inhibits SRPK | suppress retinal neovascularization | has antiviral activity |
